Data: ChEMBL document CHEMBL3046484, “Fumigant toxicity of lemon eucalyptus oil constituents to acaricide-susceptible and acaricide-resistant Tetranychus urticae” (2011)

How the values were obtained:
Assay type in all cases: functional
Tetranychus urticae [1] = test: Insecticidal activity against pyridaben-resistant female Tetranychus urticae PRT-53 (two-spotted spider mite) in kidney bean assessed as mortality in 3 cm disks measured after 24 hr exposure by vapour-phase mortality bioassay
Tetranychus urticae [2] = test: Insecticidal activity against fenpropathrin-resistant female Tetranychus urticae FRT-53 (two-spotted spider mite) in kidney bean assessed as mortality in 3 cm disks measured after 24 hr exposure by vapour-phase mortality bioassay
Tetranychus urticae [3] = test: Insecticidal activity against chlorfenapyr-resistant female Tetranychus urticae CRT-53 (two-spotted spider mite) in kidney bean assessed as mortality in 3 cm disks measured after 24 hr exposure by vapour-phase mortality bioassay
Tetranychus urticae [4] = test: Insecticidal activity against abamectin-resistant female Tetranychus urticae ART-53 (two-spotted spider mite) in kidney bean assessed as mortality in 3 cm disks measured after 24 hr exposure by vapour-phase mortality bioassay
Tetranychus urticae [5] = test: Insecticidal activity against acaricide-susceptible female Tetranychus urticae KST (two-spotted spider mite) in kidney bean assessed as mortality in 3 cm disks measured after 24 hr exposure by vapour-phase mortality bioassay

Row | Structure (SMILES) | LC50 (Tetranychus urticae [1]) | LC50 (Tetranychus urticae [2]) | LC50 (Tetranychus urticae [3]) | LC50 (Tetranychus urticae [4]) | LC50 (Tetranychus urticae [5])
1 | Cc1ccc(C(C)C)cc1 [P-CYMENE] | 243.3 microg/cm3 | 238.9 microg/cm3 | 213.5 microg/cm3 | 265.2 microg/cm3 | 231.4 microg/cm3
2 | CC1=CC[C@@](O)(C(C)C)CC1 | 43.7 microg/cm3 | 40.8 microg/cm3 | 36.7 microg/cm3 | 38.7 microg/cm3 | 36.9 microg/cm3
3 | CC(=O)OC/C=C(\C)CCC=C(C)C [GERANYL ACETATE] | 24.5 microg/cm3 | 26.7 microg/cm3 | 25.3 microg/cm3 | 24 microg/cm3 | 24.5 microg/cm3
4 | C=C1CC[C@@H]2[C@@H]([C@@H]3[C@H](C)CC[C@@H]13)C2(C)C [(+)-AROMADENDRENE] | – | – | – | – | >500 microg/cm3
5 | C=C(C)[C@@H]1CC[C@@H](C)C[C@H]1O [ISOPULEGOL] | 27.7 microg/cm3 | 30.1 microg/cm3 | 30.7 microg/cm3 | 29 microg/cm3 | 30.3 microg/cm3
6 | C=C1CC[C@H]2O[C@]2(C)CC[C@@H]2[C@@H]1CC2(C)C [(-)-CARYOPHYLLENE OXIDE] | – | – | – | – | >500 microg/cm3
7 | CC1=CC[C@H](C(C)C)C=C1 | 340.7 microg/cm3 | 360.6 microg/cm3 | 380.1 microg/cm3 | 354.7 microg/cm3 | 299.7 microg/cm3
8 | C=C[C@]1(C)CC[C@@H](C(C)(C)O)O1 [(E)-LINALOOL OXIDE] | – | – | – | – | >500 microg/cm3
9 | CC1(C)C2CCC1(C)C(O)C2 (centres undefined) [BORNEOL] | – | – | – | – | >500 microg/cm3
10 | CC1CCC(C(C)C)C(O)C1 (centres undefined) [MENTHOL] | 12.9 microg/cm3 | 12.8 microg/cm3 | 13 microg/cm3 | 13.7 microg/cm3 | 12.9 microg/cm3
11 | CC(C)=CCC[C@@H](C)CC=O [CITRONELLAL] | 34.9 microg/cm3 | 34 microg/cm3 | 34.8 microg/cm3 | 34.9 microg/cm3 | 33.9 microg/cm3
12 | CC(=O)OCCC(C)CCC=C(C)C (centres undefined) [CITRONELLYL ACETATE] | 17.4 microg/cm3 | 16.5 microg/cm3 | 16.7 microg/cm3 | 12.8 microg/cm3 | 16.8 microg/cm3
13 | C=CCc1ccc(O)c(OC)c1 [EUGENOL] | 31.7 microg/cm3 | 28.6 microg/cm3 | 25.9 microg/cm3 | 27.8 microg/cm3 | 24.6 microg/cm3
14 | CC12CCC(CC1)C(C)(C)O2 [EUCALYPTOL] | 263.7 microg/cm3 | 249 microg/cm3 | 298.4 microg/cm3 | 256.3 microg/cm3 | 275 microg/cm3
15 | C=CC(C)(O)CCC=C(C)C (centres undefined) [LINALOOL] | 55 microg/cm3 | 57.3 microg/cm3 | 58.9 microg/cm3 | 62.4 microg/cm3 | 54.6 microg/cm3
16 | C=CC(=C)CCC=C(C)C [MYRCENE] | 377.4 microg/cm3 | 369.3 microg/cm3 | 370.6 microg/cm3 | 384.2 microg/cm3 | 349.8 microg/cm3
17 | C=C1CC/C=C(\C)CC[C@@H]2[C@@H]1CC2(C)C [BETA-CARYOPHYLLENE] | 44.7 microg/cm3 | 47.7 microg/cm3 | 49.1 microg/cm3 | 53.4 microg/cm3 | 47.6 microg/cm3
18 | CC(C)=CCC/C(C)=C/CO [GERANIOL] | 33.2 microg/cm3 | 26.8 microg/cm3 | 32 microg/cm3 | 33.3 microg/cm3 | 32.1 microg/cm3
19 | CC(C)=CCCC(C)CCO (centres undefined) [CITRONELLOL] | 25.9 microg/cm3 | 21.4 microg/cm3 | 26.1 microg/cm3 | 26 microg/cm3 | 21.7 microg/cm3
20 | C=C/C(C)=C/CC=C(C)C [OCIMENE] | 260.2 microg/cm3 | 289.6 microg/cm3 | 277.2 microg/cm3 | 281.3 microg/cm3 | 255 microg/cm3
21 | CC1=CC=C(C(C)C)CC1 | 253.2 microg/cm3 | 263.3 microg/cm3 | 293.9 microg/cm3 | 277.5 microg/cm3 | 260 microg/cm3
22 | C=C(C)[C@H]1CC=C(C)CC1 [D-LIMONENE] | 288.5 microg/cm3 | 284.3 microg/cm3 | 333.3 microg/cm3 | 277.6 microg/cm3 | 246.7 microg/cm3
